Among the test systems are DMS 114 small cell lung; HCC-2998 colon; SK-MEL-2 melanoma; OVCAR-3 ovarian; KM20L2 colon; OVCAR-5 ovarian; SN12C renal; M14 melanoma; DMS 273 small cell lung; SK-OV-3 ovarian; MDA-N; DU-145 prostate.
Holding throughout (assay): inhibition of tumour cell growth, NCI panel, 48 h

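Test compounds were applied to cells in 96-well plates for 48 hours at 5 doses. At the TGI there is no net growth.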

Consider nine compounds from PubChem BioAssay (NCI).

Regarding `Cc1cn(C2CC(O)C(CO)C2C)c(=O)[nH]c1=O` (centres undefined), the TGI with DMS 114 small cell lung, in the experiment with HCC-2998 colon, in the experiment with SK-MEL-2 melanoma, in the experiment on OVCAR-3 ovarian, in the experiment with KM20L2 colon and with OVCAR-5 ovarian was above 100 µM in each case. Further, the TGI with SN12C renal, in the experiment with M14 melanoma, with DMS 273 small cell lung and with SK-OV-3 ovarian was above 100 µM throughout.

In the case of `C=Nc1ccc([N+](=O)[O-])cc1`, the TGI in the experiment with DMS 114 small cell lung, in the experiment on HCC-2998 colon, with SK-MEL-2 melanoma, in the experiment with OVCAR-3 ovarian, in the experiment with KM20L2 colon and in the experiment with OVCAR-5 ovarian was above 100 µM each time. Also, the TGI in the experiment on SN12C renal, in the experiment on M14 melanoma, with DMS 273 small cell lung and in the experiment with SK-OV-3 ovarian was above 100 µM each time.

In the case of `CO/C(=N\N=C\c1ccc(Cl)cc1)c1ccncc1`, the TGI in the experiment on DMS 114 small cell lung, in the experiment on HCC-2998 colon, with SK-MEL-2 melanoma, in the experiment on OVCAR-3 ovarian, in the experiment on KM20L2 colon and in the experiment with OVCAR-5 ovarian was above 100 µM in each case. Besides, the TGI in the experiment on SN12C renal, in the experiment on M14 melanoma, with DMS 273 small cell lung and in the experiment with SK-OV-3 ovarian was above 100 µM in each case.

With `CC1(C)CCC[C@]2(C)[C@@H]1CC[C@@]13O[C@@H]1C1=C(CO)C(=O)O[C@]14O[C@@H]4[C@@H]23`, the TGI in the experiment on MDA-N was 20.1 µM; in the experiment with HCC-2998 colon, 40.5 µM; in the experiment on SK-MEL-2 melanoma it was 31.6 µM; in the experiment on OVCAR-3 ovarian, 27.1 µM; with OVCAR-5 ovarian it was 31.8 µM; with DU-145 prostate, 33.8 µM. For the same compound, the figures for the TGI in the experiment with SN12C renal, with M14 melanoma and in the experiment on SK-OV-3 ovarian were 20.5 µM, 23.6 µM and 31.7 µM, respectively.

Regarding `CC1=NN(c2cccc(Cl)c2)C2(C1)C(Cl)C(=O)N2c1nc2ccccc2s1` (centres undefined), the TGI in the experiment on MDA-N is above 100 µM; in the experiment on HCC-2998 colon, above 100 µM; in the experiment with SK-MEL-2 melanoma it was 38.7 µM; with OVCAR-3 ovarian it was 66.5 µM; with OVCAR-5 ovarian, above 100 µM; in the experiment on DU-145 prostate it was above 100 µM. The values for the TGI in the experiment on SN12C renal, in the experiment on M14 melanoma and in the experiment on SK-OV-3 ovarian were 82.3 µM, 64.1 µM and 69.1 µM, respectively.

Consider `CN(C)N=Nc1ccc([N+](=O)[O-])cc1C(N)=O`, for which the TGI with DMS 114 small cell lung, with HCC-2998 colon, in the experiment on SK-MEL-2 melanoma, in the experiment with OVCAR-3 ovarian, with KM20L2 colon and with OVCAR-5 ovarian was above 100 µM each time. Also, the TGI with SN12C renal, in the experiment on DMS 273 small cell lung and in the experiment with SK-OV-3 ovarian was above 100 µM in each case.

For the compound `COC(=O)c1c(OC(C)=O)ccc2c1c1c(OC(C)=O)c3ccccc3c(OC(C)=O)c1n2Cc1cc(OC)cc(OC)c1`, the TGI in the experiment on MDA-N is 81.4 µM; in the experiment with HCC-2998 colon, 10.9 µM; with SK-MEL-2 melanoma it was 12.5 µM; with OVCAR-3 ovarian, above 100 µM; with OVCAR-5 ovarian, above 100 µM; with DU-145 prostate it was above 100 µM. Also, the figures for the TGI in the experiment on SN12C renal, in the experiment on M14 melanoma and in the experiment with SK-OV-3 ovarian were above 100 µM, above 100 µM and 57.8 µM, respectively.

In the case of `COc1ccc2oc(S(=O)(=O)N3CC(CCl)c4ccc([N+](=O)[O-])cc43)cc2c1` (centres undefined), the TGI with MDA-N was 11 µM; in the experiment on HCC-2998 colon, 2.62 µM; in the experiment on SK-MEL-2 melanoma, 2.96 µM; in the experiment with OVCAR-3 ovarian it was 0.457 µM; with OVCAR-5 ovarian, above 100 µM; in the experiment with DU-145 prostate it was 0.317 µM. For the same compound, the figures for the TGI in the experiment with SN12C renal, with M14 melanoma and in the experiment with SK-OV-3 ovarian were 14 µM, 32.7 µM and 4.83 µM, respectively.

As for `CC1(CCCC2(C)CCNC2=O)OCCO1` (centres undefined), the TGI in the experiment on MDA-N, with HCC-2998 colon, in the experiment on SK-MEL-2 melanoma, in the experiment on OVCAR-3 ovarian, in the experiment on OVCAR-5 ovarian and with DU-145 prostate was above 10 µM in each case. Besides, the TGI with SN12C renal, with M14 melanoma and with SK-OV-3 ovarian was above 10 µM each time.
